Laboratory results taken from patent publication US20090054346A1, “ELASTIN PRODUCTION-ENHANCING AGENTS” (Rohto Pharmaceutical Co., Ltd., priority 2006, published 2009).
Peptide text beside a SMILES is read from it.

Tested on: Normal human skin-derived fibroblasts (CRL-1836)
Assay: Microscopic observation of fibroblasts after 72 hours of culture (cell count, morphology)
Type: cell-based
Details: 1000 μg/ml peptide
Protocol: Normal human skin-derived fibroblasts (CRL-1836; ATCC) were cultured in 60-mm dishes. More specifically, the cells were plated in dishes at a density of 2500 cells/cm^2, and cultured until subconfluent at 37° C. under 5% carbon dioxide gas and 95% air for 6 days. 3 ml of Dulbecco's Modified Eagle Medium (DMEM) supplemented with […] fetal bovine serum (FBS) was used in the culture. Then, the culture medium was changed to the same medium without FBS (namely, serum-free medium), and the culture was continued for 1 day. Next, the culture medium was changed to 3 ml of serum-free medium supplemented with 1000 μg/ml of the LEHA peptide prepared in Example 1, and the cells were cultured for 72 hours. Meanwhile, the culture in which the medium was changed to 3 ml of serum-free culture medium without the LEHA peptide was used as a control.
After 72 hours of culture, the cells in the dishes containing the LEHA peptide and the control dishes were observed under a microscope.

- cell counts versus control dishes: not significantly different
SMILES: CC(C)C[C@H](N)C(=O)N[C@@H](CCC(=O)O)C(=O)N[C@@H](Cc1c[nH]cn1)C(=O)N[C@@H](C)C(=O)O [LEHA peptide, Leu-Glu-His-Ala] (H-LEHA-OH)
- morphological abnormality of the cells: no morphological abnormality was observed
